# Measurements: patent US12454516B2, “Nitric oxide releasing prodrugs of MDA and MDMA” (priority 2021, dated 2025)
# Tests used:
# [1] = Stability of Prodrug 2-1 in plasma (rat); format: in vitro ADME
# [2] = Stability in SGF without pepsin; format: in vitro ADME
# physchem = conditions: buffer, pH 6.5
# Solubility in FaSSIF = format: physicochemical; conditions: read-out: Solublity (uM) FaSSIF
# [3] = Stability in SGF with pepsin; format: in vitro ADME
# [4] = Stability of Prodrug 2-1 in plasma (mouse); format: in vitro ADME
# [5] = Stability of Prodrug 2-1 in plasma (human); format: in vitro ADME
SMILES,Remaining Percentage (%) 0 min (Stability in PBS pH 6.5) [%],Remaining Percentage (%) 30 min (Stability in PBS pH 6.5) [%],Remaining Percentage (%) 60 min (Stability in PBS pH 6.5) [%],Remaining Percentage (%) 120 min (Stability in PBS pH 6.5) [%],Remaining Percentage (%) 240 min (Stability in PBS pH 6.5) [%],half-life [1] [h],Remaining Percentage (%) 0 min [1] [%],Remaining Percentage (%) 15 min [1] [%],Remaining Percentage (%) 30 min [1] [%],Remaining Percentage (%) 60 min [1] [%],Remaining Percentage (%) 120 min [1] [%],Remaining Percentage (%) 0 min [2] [%],Remaining Percentage (%) 30 min [2] [%],Remaining Percentage (%) 60 min [2] [%],Remaining Percentage (%) 120 min [2] [%],Remaining Percentage (%) 240 min [2] [%],Remaining Percentage (%) 0 min [3] [%],Remaining Percentage (%) 30 min [3] [%],Remaining Percentage (%) 60 min [3] [%],Remaining Percentage (%) 120 min [3] [%],further results
"O=C(O)CCCc1ccc(N(CCCl)CCCl)cc1 [Chlorambucil, reference compound]",100,62.6,39.9,15.07,2.05,–,–,–,–,–,–,–,–,–,–,–,–,–,–,–,–
"C[C@H](Cc1ccc2c(c1)OCO2)NC(=O)CCCO[N+](=O)[O-] [Compound 2-1, (R)-4-((1-(benzo[d][1,3]dioxol-5-yl)propan-2-yl)amino)-4-oxobutyl nitrate]",100,104.05,105.81,98.20,83.83,3.84,100.00,96.93,93.53,81.00,70.84,100,95.42,99.51,93.54,81.87,100,98.88,98.96,89.53,half-life [2]: 14.3 h; half-life (physchem): 13.4 h; solubility (Solubility in FaSSIF): 284 µM; half-life [3]: 13.5 h; Remaining Percentage (%) 240 min [3]: 82.75%; half-life [4]: 26.2 h; Remaining Percentage (%) 0 min [4]: 100.00%; Remaining Percentage (%) 15 min [4]: 95.13%; Remaining Percentage (%) 30 min [4]: 98.19%; Remaining Percentage (%) 60 min [4]: 95.02%; Remaining Percentage (%) 120 min [4]: 93.59%; half-life [5]: 15.1 h; Remaining Percentage (%) 0 min [5]: 100.00%; Remaining Percentage (%) 15 min [5]: 100.94%; Remaining Percentage (%) 30 min [5]: 102.03%; Remaining Percentage (%) 60 min [5]: 90.66%; Remaining Percentage (%) 120 min [5]: 93.79%
"CC[C@H]1OC(=O)[C@H](C)[C@@H](O[C@H]2C[C@@](C)(OC)[C@@H](O)[C@H](C)O2)[C@H](C)[C@@H](O[C@@H]2O[C@H](C)C[C@H](N(C)C)[C@H]2O)[C@](C)(O)C[C@@H](C)C(=O)[C@H](C)[C@@H](O)[C@]1(C)O [Erythromycin, reference compound]",–,–,–,–,–,–,–,–,–,–,–,100,60.53,34.86,11.45,1.64,100,59.9,39.02,12.40,Remaining Percentage (%) 240 min [3]: 1.57%
"CC[C@H](C)C(=O)O[C@H]1C[C@@H](C)C=C2C=C[C@H](C)[C@H](CC[C@@H]3C[C@@H](O)CC(=O)O3)[C@H]21 [Lovastatin, reference compound]",–,–,–,–,–,0.0747,100.00,9.82,0.00,0.00,0.00,–,–,–,–,–,–,–,–,–,–
"CC(C)[N+](C)(CCOC(=O)C1c2ccccc2Oc2ccccc21)C(C)C [Propantheline, reference compound]",–,–,–,–,–,–,–,–,–,–,–,–,–,–,–,–,–,–,–,–,half-life [4]: 0.449 h; Remaining Percentage (%) 0 min [4]: 100.00%; Remaining Percentage (%) 15 min [4]: 72.20%; Remaining Percentage (%) 30 min [4]: 49.21%; Remaining Percentage (%) 60 min [4]: 22.77%; Remaining Percentage (%) 120 min [4]: 4.69%; half-life [5]: 0.246 h; Remaining Percentage (%) 0 min [5]: 100.00%; Remaining Percentage (%) 15 min [5]: 72.22%; Remaining Percentage (%) 30 min [5]: 39.13%; Remaining Percentage (%) 60 min [5]: 6.46%; Remaining Percentage (%) 120 min [5]: 0.12%
